In patent publication US20240262845A1, “PYRIDINIUM SALTS, METHODS OF MAKING, AND METHODS OF USE” (UNIVERSITY OF WYOMING, priority 2023, published 2024):
Where a name gives a salt, the structure may show the parent alone.

Legend:
[1] = target: T1, bovine carbonic anhydrase II (Bos taurus, UniProt P00921); test: Photochemical labeling of bovine carbonic anhydrase II with pyridinium salt (General Procedure B, LC/MS); type: biochemical; settings: trypsin digest
T1 construct: Carbonic Anhydrase Isozyme II from bovine erythrocytes; purchased Sigma Aldrich; host or cells: bovine erythrocytes
T1 sequence (P00921 whole entry): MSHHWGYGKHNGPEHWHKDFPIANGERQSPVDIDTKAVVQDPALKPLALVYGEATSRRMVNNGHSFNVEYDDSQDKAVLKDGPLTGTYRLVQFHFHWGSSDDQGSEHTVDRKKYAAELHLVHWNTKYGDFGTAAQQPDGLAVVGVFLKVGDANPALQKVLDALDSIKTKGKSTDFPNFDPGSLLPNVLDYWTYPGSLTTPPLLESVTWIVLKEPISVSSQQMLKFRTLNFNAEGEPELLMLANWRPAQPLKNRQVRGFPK
Procedure: (§1) General Procedure B: Photochemical Irradiation of Peptides and Proteins: To a 2 mL Pyrex LC/MS vial (Thermo model #03-391-39) were sequentially added solutions containing the desired biomolecule, glutathione (GSH), pyridinium salt, and ammonium acetate (NH4OAc). The resulting solution was diluted to a final volume of 500 μL and then sparged using nitrogen for a minimum of 30 minutes prior to irradiation. The actively sparging solution was then placed in an EvoluChem™ PhotoRedOx Box photoreactor that was equipped with a Kessil, PR160 427 nm LED Lamp and was then irradiated (100% lamp intensity) for the designated time at room temperature while maintaining active sparging. The resultant reaction mixture was then analyzed directly by LC/MS. […]
Labeling of Bovine Carbonic Anhydrase II with Pyridinium Salt 2a (Bovine Carbonic Anhydrase II-2a Conjugate). […] The reaction mixture was directly analyzed by LC/MS using method A and was estimated to have proceeded with 34% conversion and a 4.5:1 mono:di labeled ratio. […]
General Trypsin Digest Protocol B: For non-cystine bridged labeled proteins, a standard trypsin digest was modified as follows. […] The digested mixture was analyzed directly by LC/MS and MS/MS using method C. […]

Exenatide = Exenatide (Heloderma suspectum, UniProt P26349); test: Photochemical labeling of exenatide with pyridinium salt (General Procedure B, LC/MS); type: biochemical; settings: trypsin digest
Exenatide, sequence (P26349 48-86 limits assumed): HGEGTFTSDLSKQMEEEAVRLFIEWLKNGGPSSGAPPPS
Procedure: as §1
Labeling of Exenatide with Pyridinium Salt 2a (Exenatide-2a Conjugate). […] The resulting reaction mixture was directly analyzed by LC/MS using method A and was estimated to have proceeded in 70% conversion. […]
General Trypsin Digest Protocol B: For non-cystine bridged labeled proteins, a standard trypsin digest was modified as follows. […] The digested mixture was analyzed directly by LC/MS and MS/MS using method C.
Exenatide-2a Conjugate. […] The digested mixture was analyzed directly by LC-MS and MS/MS. […]

Structure (SMILES): COC(=O)N(C)[n+]1c(C)cc(-c2ccc3cc(OC)ccc3c2)cc1C [pyridinium salt 2a, 1-((methoxycarbonyl)(methyl)amino)-4-(6-methoxynapthalen-2-yl)-2,6-dimethylpyridin-1-ium tetrafluoroborate]
- Modified Trp [1]: Trp-243
- Modified Trp (Exenatide): Trp-025
